These results are taken from US20080064871A1, “Production Method of Nitrogen-Containing Fused Ring Compounds” (Japan Tobacco Inc., priority 2006, published 2008).

Some results are limits rather than exact numbers.

This assay concerns the target T1, human URAT1 (Homo sapiens, UniProt Q96S37).
T1 construct: Human URAT1 full length cDNA was subcloned to expression vector pcDNA3.1; expressed in transfected cells; host or cells: HEK293 cells (pcDNA3.1, geneticin-selected)
T1 sequence (Q96S37 1-553): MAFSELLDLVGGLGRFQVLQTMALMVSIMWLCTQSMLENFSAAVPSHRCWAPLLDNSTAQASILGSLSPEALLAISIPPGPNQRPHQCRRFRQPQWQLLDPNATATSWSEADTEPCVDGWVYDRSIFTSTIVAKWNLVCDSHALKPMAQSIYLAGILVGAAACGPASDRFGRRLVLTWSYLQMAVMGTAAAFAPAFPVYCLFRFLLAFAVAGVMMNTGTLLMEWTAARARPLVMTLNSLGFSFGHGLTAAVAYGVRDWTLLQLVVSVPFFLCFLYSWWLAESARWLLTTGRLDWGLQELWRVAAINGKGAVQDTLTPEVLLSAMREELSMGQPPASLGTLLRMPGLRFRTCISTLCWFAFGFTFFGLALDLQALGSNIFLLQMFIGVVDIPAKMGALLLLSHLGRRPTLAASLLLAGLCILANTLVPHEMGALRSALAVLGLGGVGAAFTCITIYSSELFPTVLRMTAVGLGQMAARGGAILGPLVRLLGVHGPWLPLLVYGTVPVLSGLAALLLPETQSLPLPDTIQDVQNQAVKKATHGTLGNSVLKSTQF
Kind of assay: Uric acid transport inhibitory test using human URAT1-expressing cells. It is filed as cell-based. The following applies: human URAT1 expressing HEK293 cells, uptake of 14C-labeled uric acid for 5 min, room temperature; read-out: hURAT1 (IC50, concentration necessary for inhibiting the uric acid transport rate by 50%). The text has this:
Reference Experimental Example 1 Uric Acid Transport Inhibitory Test Using Human Urat1-Expressing Cells
Human URAT1 full length cDNA was subcloned to expression vector pcDNA3.1 and human URAT1 gene was transfected into human embryonic kidney derived cell line (HEK293 cells) by liposome method using Lipofectamine2000. Simultaneously, HEK293 cells transfected with expression vector pcDNA3.1 alone (hereinafter mock cells) were also produced. HEK293 cells expressing human URAT1 gene or mock cells were selected with geneticin resistance as an index. The functional expression of human URAT1 gene was confirmed by a method similar to the following method, using transport of uric acid labeled with ^14C into the cells as an index.
Human URAT1 expressing HEK293 cells or mock cells were cultured in Dulbecco's modified Eagle's MEM medium (high glucose) containing 10% fetal bovine serum, 0.5 mg/mL geneticin sulfate, 100 units/mL penicillin and 100 μg/mL streptomycin under the conditions of 37° C. and 5% CO2 in an incubator. The cells were plated in a 96 well plate (poly-D-Lysine coated) at 1×10^5 cells/well and the following uric acid transport inhibitory test was performed 24 hr later. This test was performed at room temperature.
After the medium was removed by aspiration from each well, the cells were washed once with Hank's Balanced Salt Solution (HBSS) and preincubated with HBSS ([…]) for 5 min. HBSS was aspirated and an assay buffer (wherein NaCl in the above-mentioned HBSS had been substituted with Na-gluconate) containing various concentrations of the Example compound and a radioactive ligand (uric acid labeled with 14C; final concentration […]) was added to each well at […] and an uptake reaction was carried out for 5 min. After the reaction, the cells were washed twice with ice-cold HBSS ([…]), and Microscin ti TM 20 (PerkinElmer) was added at […]. The cells were lysed by stirring and the radioactivity of each well was measured in a liquid scintillation counter (TOP COUNT, Packard).
The uric acid transport rate (%) of the Example compound at each concentration was calculated relative to the radioactivity (difference in radioactivity between human URAT1 expressing HEK293 cells and mock cells without addition of Example compound (DMSO addition)) showing URAT1 specific uric acid transport as 100%, and the concentration (IC50) of the Example compound necessary for inhibiting the uric acid transport rate by 50% was determined. In Table-Table, “+++” means IC50 value of less than 100 nM, “++” means IC50 value of 100 nM to less than 1000 nM, and “+” means IC50 value of 1000 nM to less than 3000 nM.
Take `O=C(c1cc(Cl)c(O)c(Cl)c1)N1CCOc2cccnc21` [Example 36, (3,5-dichloro-4-hydroxyphenyl)-(2,3-dihydropyrido[3,2-b][1,4]oxazin-4-yl)-methanone]: the IC50 fell in the range of 100 to 1000 nM. For the compound `O=C(c1cc(Cl)cc(Cl)c1O)N1CCOc2ccccc21` [Example 38, (3,5-dichloro-2-hydroxyphenyl)-(2,3-dihydrobenzo[1,4]oxazin-4-yl)-methanone], the IC50 is 100 to 1000 nM. With `O=C(c1ccc(O)c(C(F)(F)F)c1)N1CCOc2ccccc21` [Example 39, (2,3-dihydrobenzo[1,4]oxazin-4-yl)-(4-hydroxy-3-trifluoromethylphenyl)-methanone], the IC50 was below 100 nM. In the case of `COc1cc(C(=O)N2CCOc3ccccc32)cc(Cl)c1O` [Example 40, (3-chloro-4-hydroxy-5-methoxyphenyl)-(2,3-dihydrobenzo[1,4]oxazin-4-yl)-methanone], the IC50 was 100 to 1000 nM. With `O=C(c1ccc(Cl)c(O)c1)N1CCOc2ccccc21` [Example 41, (4-chloro-3-hydroxyphenyl)-(2,3-dihydrobenzo[1,4]oxazin-4-yl)-methanone], the IC50 is 100 to 1000 nM. As to `O=C(c1cc(Cl)c(O)c(Cl)c1)N1CCOc2ccc(F)cc21` [Example 44, (3,5-dichloro-4-hydroxyphenyl)-(6-fluoro-2,3-dihydrobenzo[1,4]oxazin-4-yl)-methanone], the IC50 is below 100 nM. Take `O=C(c1cc(Cl)c(O)c(Cl)c1O)N1CCOc2ccccc21` [Example 50, (3,5-dichloro-2,4-dihydroxyphenyl)-(2,3-dihydrobenzo[1,4]oxazin-4-yl)-methanone]: the IC50 fell in the range of 100 to 1000 nM. `O=C(c1cc(Cl)c(O)c(Cl)c1)N1CCOc2ccc(Cl)cc21` [Example 51, (6-chloro-2,3-dihydrobenzo[1,4]oxazin-4-yl)-(3,5-dichloro-4-hydroxyphenyl)-methanone]: the IC50 was below 100 nM.

`O=C(c1cc(Cl)c(O)c(Cl)c1)N1CCOc2cc(Cl)ccc21` [Example 52, (7-chloro-2,3-dihydrobenzo[1,4]oxazin-4-yl)-(3,5-dichloro-4-hydroxyphenyl)-methanone]: the IC50 was in the range of 100 to 1000 nM.

As to `O=C(c1cc(Cl)c(O)c(Cl)c1)N1CCNc2ccccc21` [Example 54, (3,5-dichloro-4-hydroxyphenyl)-(3,4-dihydro-2H-quinoxalin-1-yl)-methanone], the IC50 was in the range of 100 to 1000 nM. Consider `COC(=O)c1ccc2c(c1)N(C(=O)c1cc(Cl)c(O)c(Cl)c1)CCO2` [Example 55, methyl 4-(3,5-dichloro-4-hydroxybenzoyl)-3,4-dihydro-2H-benzo[1,4]oxazine-6-carboxylate], for which the IC50 lay in the range of 100 to 1000 nM. Regarding `O=C(c1cc(Cl)c(O)c(Cl)c1)N1CCOc2ccc(CO)cc21` [Example 56, (3,5-dichloro-4-hydroxyphenyl)-(6-hydroxymethyl-2,3-dihydrobenzo[1,4]oxazin-4-yl)-methanone], the IC50 was in the range of 100 to 1000 nM. `COC(=O)c1cccc2c1N(C(=O)c1cc(Cl)c(O)c(Cl)c1)CCO2` [Example 58, methyl 4-(3,5-dichloro-4-hydroxybenzoyl)-3,4-dihydro-2H-benzo[1,4]oxazine-5-carboxylate]: the IC50 lay within 100 to 1000 nM. With `COC(=O)c1ccc2c(c1)OCCN2C(=O)c1cc(Cl)c(O)c(Cl)c1` [Example 59, methyl 4-(3,5-dichloro-4-hydroxybenzoyl)-3,4-dihydro-2H-benzo[1,4]oxazine-7-carboxylate] the figure was 1000 to 3000 nM. Regarding `COC(=O)c1cccc2c1OCCN2C(=O)c1cc(Cl)c(O)c(Cl)c1` [Example 61, methyl 4-(3,5-dichloro-4-hydroxybenzoyl)-3,4-dihydro-2H-benzo[1,4]oxazine-8-carboxylate], the IC50 is 1000 to 3000 nM. The result for `O=C(c1cc(Cl)c(O)c(Cl)c1)N1c2ccccc2Oc2ccccc21` [Example 64, (3,5-dichloro-4-hydroxyphenyl)-phenoxazin-10-ylmethanone] reads 1000 to 3000 nM.
